According to article PMC12169669, “Regio- and Stereoselective Synthesis of Nitro-fatty Acids as NRF2 Pathway Activators Working under Ambient or Hypoxic Conditions” (Journal of Medicinal Chemistry, 2025):

Experiment: Cytotoxicity assay (sulforhodamine B, SRB)
Assay type: cell-based
Settings: mouse, mouse embryonic fibroblasts (MEFs; STO)
Description: For cytotoxicity experiments, mouse embryonic fibroblasts (MEFs; STO, 86032003, Sigma-Aldrich) were cultured in DMEM (41966-029, Thermo Fisher Scientific) + 5% FBS and were seeded at 10,000 cells per well in a 96-well plate and allowed to adhere for 8 h under atmospheric conditions. Plates were then placed in incubators with the specified oxygen concentrations (21%, 4%, or 1%) and incubated overnight. The following day, the medium was replaced with fresh medium (+5% FBS) adjusted to match the target oxygen concentrations and containing the test compounds (1–100 μM). After 24 h of incubation, adherent cells were stained using a modified sulforhodamine B (SRB) assay as described in. SRB was obtained from Sigma-Aldrich (S1402). Briefly, the medium was aspirated, and cells were fixed with 10% cold trichloroacetic acid. After washing twice with distilled water, the cells were stained with 0.1% SRB dissolved in 1% acetic acid. The cells were then washed 3–4 times with 1% acetic acid and allowed to dry. The stain was solubilized with 10 mM unbuffered TRIS base, and absorbance was measured at 540 nm (Infinite M200 Pro, Tecan, Austria). The cell viability of treated samples was calculated as a percentage of nontreated controls, and IC50 values were determined (see Statistics). According to the IC50 values, a nontoxic 2 μM concentration of NO2FAs was used in further in vitro experiments. For detailed results, see Supporting Information Figure S1 and Table S3. Values are presented as arithmetic means ± standard deviations (SD), unless otherwise specified. Half-maximal inhibitory concentration (IC50) values were calculated using four-parameter logistic regression (dose vs response). For Western blot analyses, one-way ANOVA with Dunnett’s multiple comparisons test was performed against control samples. The significance level was set at p < 0.05. Statistical analyses were conducted using GraphPad Prism v10.4 (GraphPad Software, www.graphpad.com). Statistical methods and the number of experiments are indicated in the figure legends. page 9: Supporting information S9 Cytotoxicity of tested NO2FA derivatives (Figure S1) 1 10 100 0 50 100 150 21% O2 Concentration (µM) % of control 1 10 100 0 50 100 150 4% O2 Concentration (µM) % of control 1 10 100 0 50 100 150 1% O2 Concentration (µM) % of control 10-NO2OA 9-NO2OA 10-NO2LA 9-NO2cLA 10-NO2SA A B C Figure S 1. Cytotoxicity of tested NO2FA derivatives. Mouse embryonic fibroblasts (MEFs) were cultured under varying oxygen conditions (21, 4, and 1%) and treated for 24 hours with the tested NO₂FAs, after which adherent cells were stained with sulforhodamine B. Results are presented as a percentage of control cells across different oxygen culture conditions (A–C). IC₅₀ values were determined from dose-response curves (see Supplementary Table S3). Data are expressed as mean ± SD from three independent experiments (n = 3). (1 picture or pasted object on this page, not shown here) page 11: Supporting information Calculated IC50 values of tested NO2FA derivatives (Table S3) Table S 3. Calculated IC50 values of tested NO2FA derivatives. IC 21% O2 4% O2 1% O2 50 Value SEM Value SEM Value SEM 10-NO2OA 6.28 0.19 5.74 0.20 8.19 0.21 9-NO2OA 9.47 0.57 7.75 0.54 6.93 0.32 10-NO2LA 11.78 0.41 11.17 0.26 13.79 1.02 9-NO2cLA 18.03 1.96 17.19 2.26 14.31 1.82 10-NO2SA ≈100 >100 >100 IC₅₀ values were derived from dose-response curves using four-parameter logistic regression across different oxygen culture conditions. Data are presented as mean and SEM values from three independent experiments (n = 3). The IC₅₀ values calculated for cultures in 21% oxygen indicate an increasing cytotoxic potential in the order: 10-NO₂OA > 9-NO₂OA > 10-NO₂LA > 9-NO₂cLA. […] In 1% oxygen, the order of cytotoxic potential shifted slightly to 9-NO₂OA > 10-NO₂OA > 10-NO₂LA > 9-NO₂cLA. However, differences in IC₅₀ values across the oxygen conditions for each NO₂FA derivative ranged from ca. 1 to 3 µM. […]

SMILES | IC50 at 24 h (1% O2) [µM] | IC50 at 24 h (4% O2) [µM] | IC50 at 24 h (21% O2) [µM] | IC50 at 24 h (under all three oxygen conditions (21, 4, 1%)) [µM]
CCCCCCCC/C=C(\CCCCCCCC(=O)O)[N+](=O)[O-] [9-NO2OA, (9E)-9-Nitro-oleic Acid] | 6.93 ± 0.32 | 7.75 ± 0.54 | 9.47 ± 0.57 | –
CCCCCCCC/C(=C\CCCCCCCC(=O)O)[N+](=O)[O-] [10-NO2OA, (9E)-10-Nitro-oleic Acid] | 8.19 ± 0.21 | 5.74 ± 0.2 | 6.28 ± 0.19 | –
CCCCCCCCC(CCCCCCCCC(=O)O)[N+](=O)[O-] (stereo not shown) [10-NO2SA, 10-Nitro Stearic acid] | > 100 | > 100 | ~100 | ≥ 100
CCCCCC/C=C/C=C(\CCCCCCCC(=O)O)[N+](=O)[O-] [9-NO2cLA, (9E,11E)-9-Nitro Conjugated Linoleic Acid] | 14.3 ± 1.82 | 17.2 ± 2.26 | 18 ± 1.96 | –
CCCCC/C=C\C/C(=C\CCCCCCCC(=O)O)[N+](=O)[O-] [10-NO2LA, (9E,12Z)-10-Nitro Linoleic Acid] | 13.8 ± 1.02 | 11.2 ± 0.26 | 11.8 ± 0.41 | –
